Results on 8 compounds are retold here after patent US8404672B2, “Substituted heterocyclic compounds” (Bristol-Meyers Squibb Company, priority 2009, dated 2013).

One test concerns the target T1, human S1P1 (Homo sapiens, UniProt P21453).
T1 construct: expressed in transfected cells; host or cells: CHO cells
As to the kind of experiment: S1P1 Binding Assay (33P-S1P radioligand competition, CHO cell membranes). To be noted: membranes from CHO cells expressing human S1P1; 0.03 nM 33P-S1P; 60 min room temperature. On the procedure: Membranes were prepared from CHO cells expressing human S1P1. Cells were dissociated in buffer containing 20 mM HEPES, pH 7.5, 50 mM NaCl, 2 mM EDTA and Protease Inhibitor cocktail (Roche), and disrupted on ice using the Polytron homogenizer. The homogenate was centrifuged at 20,000 rpm (48,000 g) and the supernatant was discarded. The membrane pellets were resuspended in buffer containing 50 mM HEPES, pH 7.5, 100 mM NaCl, 1 mM MgCl2, 2 mM EDTA and stored in aliquots at −80° C. after protein concentration determination.
Membranes ([…]) and 0.03 nM final concentration of ^33P—S1P ligand (1 mCi/ml, American Radiolabeled Chemicals) were added to the compound plates. Binding was performed for 60 min at room temperature, terminated by collecting the membranes onto GF/B filter plates, and radioactivity was measured by TOPCOUNT®. The competition data of the test compounds over a range of concentrations was plotted as percentage inhibition of radioligand specific binding. The IC50 is defined as the concentration of competing ligand needed to reduce specific binding by 50%.
Compounds of the present invention and Comparative Compound A were tested in the S1P1 binding assay described hereinabove and the results rounded to two digits, shown in Table A were obtained. In some instances, the value is an average of multiple experiments where N is the number of experiments conducted that provided satisfactory dose response curves. When more than one batch of an example was tested, the value presented is from the batch which allowed a comparison of GTPγS S1P1 and GTPγS S1P3 in Method A (Data shown in Table B). Data was not averaged across different batches of an example compound.

Test [1] has as its target T2, S1P1 (membranes from S1P1/CHO cells) (Homo sapiens, UniProt P21453).
T2 construct: expressed in transfected cells; host or cells: S1P1/CHO cells
As to the kind of experiment: Method A: Receptor [35S] GTPγS Binding Assay, S1P1. The test is classed as biochemical. To be noted: for EC50: Method A, S1P1/CHO membranes; for GTPγS S1P3/S1P1 (Method A): ratio of GTPγS S1P3 EC50 to GTPγS S1P1 EC50, Method A. On the procedure: (§1) Method A: Receptor [35S] GTPγS Binding Assays
(§2) Compounds were loaded in a 384 Falcon v-bottom plate (0.5 μl/well in a 3-fold dilution). Membranes prepared from S1P1/CHO cells or EDG3-Gal5-bla HEK293T cells were added to the compound plate (40 μl/well, final protein 3 μg/well) with MULTIDROP®. [^35S]GTP (1250 Ci/mmol, Perkin Elmer) was diluted in assay buffer: 20 mM HEPES, pH 7.5, 10 mM MgCl2, 150 mM NaCl, 1 mM EGTA, 1 mM DTT, 10 μM GDP, 0.1% fatty acid free BSA, and 10 μg/ml Saponin to 0.4 nM. 40 μl of the [^35S] GTP solution was added to the compound plate with a final concentration of 0.2 nM. The reaction was kept at room temperature for 45 min. At the end of incubation, all the mixtures in the compound plate were transferred to a 384 well FB filter plates via GPCR robot system. The filter plate was washed with water 4 times by using the modified manifold Embla plate washer and dried at 60° C. for 45 min. 30 μA of MicroScint 20 scintillation fluid was added to each well for counting at Packard TOPCOUNT®. EC50 is defined as the agonist concentration that corresponds to 50% of the Ymax (maximal response) obtained for each individual compound tested.
(§3) Compounds of the present invention and Comparative Compound A were tested in the Receptor [35S] GTPγS Binding Assays (Method A) and Receptor [35S] In some instances, the value is an average of multiple experiments where N is the number of experiments conducted that provided satisfactory dose response curves. When more than one batch of an example was tested, the value presented is from a batch which allowed a comparison of GTPγS S1P1 and GTPγS S1P3 in which the most number of experiments were performed. Preferably, the same batch was examined in Method A and Method B. Data was not averaged across different batches of an example compound.

Test [2] concerns the target T3, S1P1 (membranes from S1P1 transfected CHO cells) (Homo sapiens, UniProt P21453).
T3 construct: expressed in transfected cells; host or cells: CHO cells
The test can be described thus: Method B: Receptor [35S] GTPγS SPA Binding Assay, S1P1. The test is classed as biochemical. Particulars: for EC50: Method B SPA, S1P1 transfected CHO membranes; for GTPγS S1P3/S1P1 (Method B): ratio of GTPγS S1P3 EC50 to GTPγS S1P1 EC50, Method B. On the procedure:
(§4) Method B: Receptor [35S] GTPγS SPA Binding Assays
(§5) Membranes prepared from S1P1 or S1P3 transfected CHO cells ([…]) were incubated in 96-well white plates (CORNING® 3693) with test compounds diluted in DMSO, in 50 μl of reaction mixture containing 7.5 μl WGA-PVT beads (20 mg/ml), and 5 μM GDP, 20 mM HEPES pH 7.4, 100 mM NaCl, 1 mM EDTA, 5 mM MgCl2, 10 μg/ml saponin, 0.1% BSA, and 1 μM leupeptin. The assay was initiated with the addition of […] of 0.2 nM [^35S]-GTPγS (1250 Ci/mmol; NEN) in assay buffer. After 90 min incubation at room temperature, spin the plate at 1000 rpm for 5 min. The bound radionuclides were measured at TOPCOUNT®, expressed as % response relative to S1P (1 μM) activation. Data was analyzed using the four parameter logistic equation in Excel. The four parameters in the equation, Y=A+((B−A)/(1+((EC50/X)^D))), are described as following: A is the Y value (agonist activity) at the bottom plateau; B is the Y value at the top plateau; EC50 is the X value (agonist concentration) when the response is halfway between bottom and top; D is Hill coefficient. Curves were not generated for compounds having Ymax values were below 50%.
as §3

Test [3] deals with T4, S1P3 (membranes from S1P3 transfected CHO cells) (Homo sapiens, UniProt Q99500).
T4 construct: expressed in transfected cells; host or cells: CHO cells
T4 sequence (Q99500 whole entry): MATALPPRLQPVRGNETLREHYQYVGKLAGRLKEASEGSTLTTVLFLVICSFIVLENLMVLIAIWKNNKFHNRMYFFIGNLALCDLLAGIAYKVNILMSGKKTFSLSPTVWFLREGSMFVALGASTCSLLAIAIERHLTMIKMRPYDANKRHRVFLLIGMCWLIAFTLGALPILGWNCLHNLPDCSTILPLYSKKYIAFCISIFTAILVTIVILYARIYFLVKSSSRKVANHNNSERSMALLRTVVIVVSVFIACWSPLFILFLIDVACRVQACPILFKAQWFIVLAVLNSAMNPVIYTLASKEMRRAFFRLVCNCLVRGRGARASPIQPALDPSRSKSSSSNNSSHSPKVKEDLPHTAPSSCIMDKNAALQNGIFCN
As to the kind of experiment: Method B: Receptor [35S] GTPγS SPA Binding Assay, S1P3. The format is biochemical. On the procedure: as §4, §5, §3

For test [4], the target named is T5, S1P3 (membranes from EDG3-Gal5-bla HEK293T cells) (Homo sapiens, UniProt Q99500).
T5 construct: expressed in transfected cells; host or cells: EDG3-Gal5-bla HEK293T cells
T5 sequence (Q99500 whole entry): as above
As to the kind of experiment: Method A: Receptor [35S] GTPγS Binding Assay, S1P3. The format is biochemical. On the procedure:
as §1, §2, §3

Structures can show the parent of a compound that is named as a salt.

T1 sequence (P21453 whole entry): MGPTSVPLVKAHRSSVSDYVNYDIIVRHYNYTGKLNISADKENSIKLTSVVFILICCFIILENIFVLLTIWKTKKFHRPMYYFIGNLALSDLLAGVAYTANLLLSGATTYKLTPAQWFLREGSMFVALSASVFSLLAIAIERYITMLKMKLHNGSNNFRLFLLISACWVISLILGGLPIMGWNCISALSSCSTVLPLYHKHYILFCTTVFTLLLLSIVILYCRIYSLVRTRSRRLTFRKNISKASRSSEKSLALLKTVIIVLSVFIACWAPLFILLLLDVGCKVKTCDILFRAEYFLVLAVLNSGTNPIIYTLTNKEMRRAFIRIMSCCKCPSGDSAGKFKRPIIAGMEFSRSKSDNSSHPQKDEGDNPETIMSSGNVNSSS
T3 sequence (P21453 whole entry): as above
T2 sequence (P21453 whole entry): as above

Compound `O=C(O)C1CN(Cc2ccc(-c3noc(-c4noc(-c5ccccn5)c4C(F)(F)F)n3)cc2)C1` [Example 2, 1-(4-(5-(5-(Pyridin-2-yl)-4-(trifluoromethyl)isoxazol-3-yl)-1,2,4-oxadiazol-3-yl)benzyl)azetidine-3-carboxylic acid] registered an IC50 at human S1P1 of 0.39 nM. In addition, the EC50 was determined as 4.5 nM in test [1], 0.34 nM in test [2] and 4400 nM in test [3]. Further, the “GTPγS S1P3/S1P1 (Method B)” value in test [2] was 13,000.

Regarding `COC(=O)c1c(-c2ccccn2)noc1-c1nc(-c2ccc(CN3CC(C(=O)O)C3)cc2)no1` [Example 7, 1-(4-(5-(4-(Methoxycarbonyl)-3-(pyridin-2-yl)isoxazol-5-yl)-1,2,4-oxadiazol-3-yl)benzyl)azetidine-3-carboxylic acid], the concentration for half-maximal inhibition (IC50) on human S1P1 amounted to 0.53 nM. In addition, the EC50 amounted to 3.3 nM in test [1] and 19000 nM in test [4]. Moreover, the “GTPγS S1P3/S1P1 (Method A)” value in test [1] was 5,800.

In turn, `CCCc1c(-c2ccccn2)noc1-c1nc(-c2ccc(CN3CC(C(=O)O)C3)cc2)no1` [Example 6, 1-(4-(5-(4-Propyl-3-(pyridin-2-yl)isoxazol-5-yl)-1,2,4-oxadiazol-3-yl)benzyl)-azetidine-3-carboxylic acid, 2,2,2-trifluoroacetic acid salt] registered a half-inhibitory concentration (IC50) at human S1P1 of 0.019 nM. Besides, the EC50 was 0.082 nM in test [2] and 430 nM in test [3]. The “GTPγS S1P3/S1P1 (Method B)” value in test [2] is reported as 5,200.

Regarding `O=C(O)C1CN(Cc2ccc(-c3noc(-c4cc(-c5ccccc5)c(C(F)(F)F)s4)n3)cc2)C1` [Comp. A, 1-(4-(5-(4-Phenyl-5-(trifluoromethyl)thiophen-2-yl)-1,2,4-oxadiazol-3-yl)benzyl)azetidine-3-carboxylic acid, reference compound], the “GTPγS S1P3/S1P1 (Method A)” value in test [1] amounted to 1.2. The “GTPγS S1P3/S1P1 (Method B)” value in test [2] was 78.

Compound `CCCc1c(-c2nc(-c3ccc(CN4CC(C(=O)O)C4)cc3)no2)noc1-c1ccccn1` [Example 3, 1-(4-(5-(4-Propyl-5-(pyridin-2-yl)isoxazol-3-yl)-1,2,4-oxadiazol-3-yl)benzyl)azetidine-3-carboxylic acid, 2,2,2-trifluoroacetic acid salt] registered an IC50 at human S1P1 of 0.021 nM. Further, the EC50 in test [1] was determined as 0.82 nM; in test [4], 2100 nM; in test [2], 0.65 nM; in test [3], 280 nM. The “GTPγS S1P3/S1P1 (Method A)” value in test [1] is given as 2,600. The “GTPγS S1P3/S1P1 (Method B)” value in test [2] worked out at 430.

Take `CCc1c(-c2nc(-c3ccc(CN4CC(C(=O)O)C4)cc3)no2)noc1-c1ccccn1` [Example 5, 1-(4-(5-(4-Ethyl-5-(pyridin-2-yl)isoxazol-3-yl)-1,2,4-oxadiazol-3-yl)benzyl)-azetidine-3-carboxylic acid, 2,2,2-trifluoroacetic acid salt]: at human S1P1, the IC50 is 0.051 nM. Also, the EC50 in test [1] was 3.7 nM; in test [4], 1900 nM; in test [2], 0.61 nM. Besides, the “GTPγS S1P3/S1P1 (Method A)” value in test [1] is listed as 513.

Take `O=C(O)C1CN(Cc2ccc(-c3noc(-c4cc(-c5ccccn5)no4)n3)cc2)C1` [Example 8]: the IC50 on human S1P1 came out at 6.5 nM. Further, the EC50 in test [1] was found to be 450 nM; in test [4] it was 2300 nM; in test [2] it was 68 nM. Further, in test [1], the “GTPγS S1P3/S1P1 (Method A)” value stood at 5.1.

The compound `CC(C)c1c(-c2nc(-c3ccc(CN4CC(C(=O)O)C4)cc3)no2)noc1-c1ccccn1` [Example 4, 1-(4-(5-(4-Isopropyl-5-(pyridin-2-yl)isoxazol-3-yl)-1,2,4-oxadiazol-3-yl)benzyl)azetidine-3-carboxylate, 2,2,2-trifluoroacetic acid salt] showed an IC50 at human S1P1 of 0.18 nM. Besides, the values for the EC50 in test [1], in test [4] and in test [2] were 39 nM, 7000 nM and 1 nM, respectively. Besides, the “GTPγS S1P3/S1P1 (Method A)” value in test [1] turned out to be 179.
